Reference: ChEMBL document CHEMBL1201862, “PubChem BioAssay data set” (2004)
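96-well plates; 48 h exposure; 5 concentrations. Endpoints by linear interpolation between flanking doses. Not reached: highest tested concentration assigned. Here, GI50 denotes the concentration required for 50% inhibition of growth.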 Activity calls are given as the source filed them. Cut-off read from the data, not from the text of the source: active = GI50 up to about 1.1 µM and inactive = higher.

How the values were obtained:
Test in all cases: DTP human tumour cell line panel, 48 h
[1] = test system: Hs-578T
[2] = test system: CCRF-CEM
[3] = test system: A498
[4] = test system: HOP-62
[5] = test system: HT-29
[6] = test system: MDA-MB-435
[7] = test system: T47D
[8] = test system: UACC-257
[9] = test system: SK-MEL-2
[10] = test system: MOLT-4
[11] = test system: NCI-H226
[12] = test system: RXF 393
[13] = test system: A549
[14] = test system: SNB-75
[15] = test system: Malme-3M
[16] = test system: HL-60
[17] = test system: M14
[18] = test system: NCI-H522
[19] = test system: EKVX
[20] = test system: IGROV-1

Row | Structure (SMILES) | GI50 [1] | GI50 [2] | GI50 [3] | GI50 [4] | GI50 [5] | GI50 [6] | GI50 [7] | GI50 [8] | GI50 [9] | GI50 [10] | GI50 [11] | GI50 [12] | GI50 [13] | GI50 [14] | GI50 [15] | GI50 [16] | GI50 [17] | GI50 [18] | GI50 [19] | GI50 [20]
1 | Cc1ccccc1/N=C/N(C)C | 44.7 µM (inactive) | 23.2 µM (inactive) | 91.6 µM (inactive) | 58.6 µM (inactive) | 34.3 µM (inactive) | 42.1 µM (inactive) | 34 µM (inactive) | 22 µM (inactive) | 15 µM (inactive) | 29.9 µM (inactive) | 48.4 µM (inactive) | 50.4 µM (inactive) | 39.6 µM (inactive) | 44.9 µM (inactive) | 43.9 µM (inactive) | 14.1 µM (inactive) | 99.3 µM (inactive) | 21.2 µM (inactive) | 35.3 µM (inactive) | 37.3 µM (inactive)
2 | COc1cccc(-c2cc(O)c3cc(Cl)cnc3n2)c1 | 0.0743 µM (active) | 0.0484 µM (active) | 0.131 µM (active) | 0.0809 µM (active) | 0.0908 µM (active) | 0.0155 µM (active) | 30.5 µM (inactive) | 6.92 µM (inactive) | 0.757 µM (active) | 0.0991 µM (active) | 0.08 µM (active) | 0.0698 µM (active) | 0.162 µM (active) | 33.5 µM (inactive) | 2.25 µM (inactive) | 0.0211 µM (active) | 0.0443 µM (active) | 0.0577 µM (active) | > 16.6 µM (inactive) | 0.228 µM (active)
3 | O=C1CSC(c2ccccc2)N1c1nc2cc3sc(N4C(=O)CSC4c4ccccc4)nc3cc2s1 (stereo unspecified) | > 51.2 µM (inactive) | 4.35 µM (inactive) | > 100 µM (inactive) | > 100 µM (inactive) | 19.1 µM (inactive) | 55.6 µM (inactive) | 61 µM (inactive) | 85.1 µM (inactive) | 63.7 µM (inactive) | 5.86 µM (inactive) | 15.8 µM (inactive) | > 100 µM (inactive) | 8.17 µM (inactive) | 38 µM (inactive) | > 87.7 µM (inactive) | > 63.7 µM (inactive) | > 87.3 µM (inactive) | 6.87 µM (inactive) | 22.1 µM (inactive) | 23.4 µM (inactive)
4 | CCCCc1ccc(Nc2nc(S)c3ncn(COCCO)c3n2)cc1 | 36.3 µM (inactive) | 25.7 µM (inactive) | > 100 µM (inactive) | 31 µM (inactive) | 50.5 µM (inactive) | 57.4 µM (inactive) | 11.6 µM (inactive) | 30.4 µM (inactive) | 23.4 µM (inactive) | 33.5 µM (inactive) | 88.7 µM (inactive) | 56 µM (inactive) | > 100 µM (inactive) | 41 µM (inactive) | 23.3 µM (inactive) | 25.2 µM (inactive) | 44.4 µM (inactive) | 20.9 µM (inactive) | 60.5 µM (inactive) | 36 µM (inactive)
5 | COc1ccc(/C=C/C2=NN(c3cccc(S(=O)(=O)O)c3)C3(C2)SCC(=O)N3c2nc3ccccc3s2)cc1 (stereo unspecified) | > 100 µM (inactive) | 17.3 µM (inactive) | 57 µM (inactive) | – | > 100 µM (inactive) | 62.4 µM (inactive) | 16.5 µM (inactive) | 83.8 µM (inactive) | 95.5 µM (inactive) | 17.5 µM (inactive) | 24.6 µM (inactive) | > 100 µM (inactive) | 90.4 µM (inactive) | > 100 µM (inactive) | > 100 µM (inactive) | > 100 µM (inactive) | > 100 µM (inactive) | 35.2 µM (inactive) | 64.7 µM (inactive) | 30.8 µM (inactive)
6 | COc1cc(C2c3cc4c(cc3OC(N3CCCC3)C2C)OCO4)cc(OC)c1O (stereo unspecified) | 4.66 µM (inactive) | 15.1 µM (inactive) | 21.1 µM (inactive) | 11.6 µM (inactive) | 17.4 µM (inactive) | 2.48 µM (inactive) | 31.8 µM (inactive) | 35.6 µM (inactive) | 14.8 µM (inactive) | 24.6 µM (inactive) | 25.5 µM (inactive) | 7.46 µM (inactive) | 19 µM (inactive) | 4.26 µM (inactive) | 8.09 µM (inactive) | 4.58 µM (inactive) | 16 µM (inactive) | 3.61 µM (inactive) | 32.5 µM (inactive) | 19.4 µM (inactive)
7 | Clc1ccc2ns[s+]c2c1 | 78 µM (inactive) | 1.27 µM (inactive) | > 100 µM (inactive) | 4.32 µM (inactive) | 3.39 µM (inactive) | 0.334 µM (active) | 11.7 µM (inactive) | 14.5 µM (inactive) | 9.35 µM (inactive) | 1.71 µM (inactive) | > 89.7 µM (inactive) | > 100 µM (inactive) | 5.24 µM (inactive) | > 79.3 µM (inactive) | 32.2 µM (inactive) | 1.09 µM (active) | 0.222 µM (active) | 11.1 µM (inactive) | 17.7 µM (inactive) | 40.3 µM (inactive)
8 | CC1OC(OC2C[C@](O)(C(=O)CF)Cc3c(O)c4c(c(O)c32)C(=O)c2ccccc2C4=O)CC(N)C1O (stereo partly specified) | 0.0103 µM (active) | < 0.01 µM (active) | 0.233 µM (active) | < 0.01 µM (active) | < 0.0156 µM (active) | 0.0746 µM (active) | 0.0106 µM (active) | 0.0794 µM (active) | 0.168 µM (active) | < 0.01 µM (active) | < 0.01 µM (active) | 0.0637 µM (active) | < 0.01 µM (active) | 0.0161 µM (active) | < 0.0109 µM (active) | < 0.01 µM (active) | 0.0263 µM (active) | 0.0202 µM (active) | 0.507 µM (active) | 0.0877 µM (active)
9 | COC(=O)/C=C\C(C#N)(C#N)/N=C/c1cc(Br)cs1 | 22.8 µM (inactive) | 0.0914 µM (active) | 18.5 µM (inactive) | 18.6 µM (inactive) | 1.94 µM (inactive) | 2.38 µM (inactive) | 2.12 µM (inactive) | 2.67 µM (inactive) | 10.6 µM (inactive) | 1.89 µM (inactive) | 19.8 µM (inactive) | 2.27 µM (inactive) | 18 µM (inactive) | 16.2 µM (inactive) | 1.71 µM (inactive) | 0.0465 µM (active) | 2.51 µM (inactive) | 1.5 µM (inactive) | 7.45 µM (inactive) | 3.44 µM (inactive)
10 | COc1cc(C(c2cc(OC)c(OC)c(OC)c2)N2C(=O)CCC2C(=O)O)cc(OC)c1OC (stereo unspecified) | > 100 µM (inactive) | > 100 µM (inactive) | > 100 µM (inactive) | > 100 µM (inactive) | > 100 µM (inactive) | > 100 µM (inactive) | > 100 µM (inactive) | > 100 µM (inactive) | > 100 µM (inactive) | > 100 µM (inactive) | > 100 µM (inactive) | > 100 µM (inactive) | > 100 µM (inactive) | > 100 µM (inactive) | > 100 µM (inactive) | > 100 µM (inactive) | > 100 µM (inactive) | > 100 µM (inactive) | > 100 µM (inactive) | > 100 µM (inactive)
11 | COC(=O)C1OC(SCCN)C(O)C(O)C1O (stereo unspecified) | > 100 µM (inactive) | > 100 µM (inactive) | > 100 µM (inactive) | > 100 µM (inactive) | > 100 µM (inactive) | > 100 µM (inactive) | > 100 µM (inactive) | > 100 µM (inactive) | > 100 µM (inactive) | > 100 µM (inactive) | > 100 µM (inactive) | > 100 µM (inactive) | > 100 µM (inactive) | > 100 µM (inactive) | > 100 µM (inactive) | > 100 µM (inactive) | > 100 µM (inactive) | > 100 µM (inactive) | > 100 µM (inactive) | > 100 µM (inactive)
12 | CC1(C)SC2C(NC(=O)Cc3ccccc3)C(=O)N2C1C(=O)O (stereo unspecified) | > 100 µM (inactive) | – | > 100 µM (inactive) | > 100 µM (inactive) | > 100 µM (inactive) | > 100 µM (inactive) | > 100 µM (inactive) | > 100 µM (inactive) | > 100 µM (inactive) | > 100 µM (inactive) | 34 µM (inactive) | > 100 µM (inactive) | > 100 µM (inactive) | > 100 µM (inactive) | > 100 µM (inactive) | > 100 µM (inactive) | > 100 µM (inactive) | > 100 µM (inactive) | > 100 µM (inactive) | > 100 µM (inactive)
13 | CC1OC(O[C@H]2C3C=CO[C@@H](OC4OC(CO)C(O)C(O)C4O)C3[C@@]3(COC(=O)/C=C/c4ccc(O)cc4)O[C@@H]23)C(O)C(O)C1O (stereo partly specified) | > 100 µM (inactive) | – | > 100 µM (inactive) | > 100 µM (inactive) | > 100 µM (inactive) | > 100 µM (inactive) | > 100 µM (inactive) | > 100 µM (inactive) | > 100 µM (inactive) | > 100 µM (inactive) | > 100 µM (inactive) | > 100 µM (inactive) | > 100 µM (inactive) | > 100 µM (inactive) | > 100 µM (inactive) | > 100 µM (inactive) | > 100 µM (inactive) | > 100 µM (inactive) | > 100 µM (inactive) | > 100 µM (inactive)
14 | O=C(O)CCc1nc2c(n1Cc1ccccc1)C(=O)c1ccccc1C2=O | 66.5 µM (inactive) | 76.7 µM (inactive) | > 100 µM (inactive) | > 100 µM (inactive) | 42 µM (inactive) | 19.2 µM (inactive) | 52 µM (inactive) | 33.7 µM (inactive) | 26 µM (inactive) | 68.9 µM (inactive) | > 100 µM (inactive) | 24.9 µM (inactive) | 50.4 µM (inactive) | > 100 µM (inactive) | – | 64 µM (inactive) | 21.4 µM (inactive) | 24.3 µM (inactive) | 78.2 µM (inactive) | 70.3 µM (inactive)
